Read-outs that look alike come from different tables or passages of the source. Where only a bound is given, the exact number is not on record here.

Assay [1] relates to NCI-H1975 cells (EGFR T790M L858R). Nature of the assay: EGFR-SOS cellular inhibition assay (CellTiter-Glo, 3D). Format: cell-based. Particulars: Homo sapiens.
The target in assay [2] is SOS1 (Homo sapiens (Human), UniProt Q07889). As to the kind of experiment: Ras-SOS interaction assay (HTRF). Type of assay: biochemical.
Assay [3] has as its system MIA PaCa-2 cells (K-Ras G12C). Nature of the assay: Ras-SOS cellular growth inhibition assay (CellTiter-Glo, 3D). Format: cell-based. Conditions: Homo sapiens. The gist of the method: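 Growth read by CellTiter-Glo luminescence about 5 days after dosing with 3-fold dilutions (9 points), added one day post-seeding. Cells: MIA PaCa-2, 3D culture on ultra-low-attachment surface, medium DMEM/Ham's F12 plus 10% FCS and 2.5% horse serum; IC50 by four-parameter fit.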

Setting [4] is: 120 h, NCI-H1975, 3D proliferation, about 5 days, read-out: Bio-Cell-Prolif-3D (H1975 IC50).
The mark [5] stands for this setting: NCI-H1975, EGFR T790M L858R, read-out: IC50 in inhibiting growth of NCI-H1975 cell line.
Setting [6] is: K-RasG13D utilized, read-out: IC50 inhibition of SOS.
Where [7] appears, read: K-RasG13D, read-out: IC50 value against SOS1.
Where [8] appears, read: MIA PaCa-2, 120 h, MIA PaCa-2, 3D proliferation, about 5 days, read-out: Bio-Cell-Prolif-3D (MiaPaca2 IC50).
Setting [9] is: MIA PaCa-2, MIA PaCa-2, read-out: IC50 in inhibiting MIA PaCa-2 cell growth.

SOS1, sequence (Q07889 564-1049): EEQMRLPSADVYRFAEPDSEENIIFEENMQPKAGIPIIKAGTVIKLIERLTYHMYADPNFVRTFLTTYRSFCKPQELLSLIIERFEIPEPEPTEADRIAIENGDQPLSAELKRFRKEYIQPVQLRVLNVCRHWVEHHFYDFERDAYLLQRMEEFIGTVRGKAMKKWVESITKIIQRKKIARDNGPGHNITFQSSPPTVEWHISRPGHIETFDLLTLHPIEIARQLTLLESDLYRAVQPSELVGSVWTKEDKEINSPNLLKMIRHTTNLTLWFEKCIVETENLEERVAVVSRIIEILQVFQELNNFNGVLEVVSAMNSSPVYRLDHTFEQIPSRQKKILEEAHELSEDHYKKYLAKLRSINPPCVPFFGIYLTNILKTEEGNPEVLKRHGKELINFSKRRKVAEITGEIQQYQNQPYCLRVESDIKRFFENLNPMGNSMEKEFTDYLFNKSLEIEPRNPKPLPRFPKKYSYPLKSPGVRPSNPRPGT

`Cc1c([C@@H](C)Nc2ncnc3nc(Cl)c(N4CCS(=O)(=O)CC4)cc23)cccc1C(F)(F)F` [Compound 328, (R)-4-(7-chloro-4-((1-(2-methyl-3-(trifluoromethyl)phenyl)ethyl)amino)pyrido[2,3-d]pyrimidin-6-yl)thiomorpholine 1,1-dioxide]: the IC50 was at most 1000 nM in assay [1] (setting [4]); below 500 nM in assay [1] (setting [5]); below 100 nM in assay [2] (setting [6]); below 50 nM in assay [2] (setting [7]); at most 1000 nM in assay [3] (setting [8]); below 500 nM in assay [3] (setting [9]).
As for `C[C@@H](Nc1ncnc2nc(Cl)c(N3CCS(=O)(=O)CC3)cc12)c1cccc(C(F)(F)F)c1F` [Compound 330, (R)-4-(7-chloro-4-((1-(2-fluoro-3-(trifluoromethyl)phenyl)ethyl)amino)pyrido[2,3-d]pyrimidin-6-yl)thiomorpholine 1,1-dioxide], the IC50 in assay [1] (setting [4]) was at most 1000 nM; in assay [1] (setting [5]) it was below 500 nM; in assay [2] (setting [6]), below 100 nM; in assay [2] (setting [7]), below 50 nM; in assay [3] (setting [8]), at most 1000 nM; in assay [3] (setting [9]), below 500 nM.
As to `C[C@@H](Nc1ncnc2nc(Cl)c(C3CCS(=O)(=O)CC3)cc12)c1cccc(C(F)(F)F)c1F` [Compound 331, (R)-4-(7-chloro-4-((1-(2-fluoro-3-(trifluoromethyl)phenyl)ethyl)amino)pyrido[2,3-d]pyrimidin-6-yl)tetrahydro-2H-thiopyran 1,1-dioxide], the IC50 in assay [1] (setting [4]) was at most 1000 nM; in assay [1] (setting [5]), below 500 nM; in assay [2] (setting [6]), below 100 nM; in assay [2] (setting [7]) it was below 50 nM; in assay [3] (setting [8]) it was at most 1000 nM; in assay [3] (setting [9]) it was below 500 nM.
For the molecule `Cc1nc(N[C@H](C)c2cccc(C(F)F)c2F)c2cc(C3CCN(C)CC3)c(OCCN(C)C)nc2n1` [Compound 334, (R)-N-(1-(3-(difluoromethyl)-2-fluorophenyl)ethyl)-7-(2-(dimethylamino)ethoxy)-2-methyl-6-(1-methylpiperidin-4-yl)pyrido[2,3-d]pyrimidin-4-amine], the IC50 in assay [1] (setting [5]) was below 500 nM; in assay [2] (setting [6]) it was below 100 nM; in assay [2] (setting [7]), below 50 nM; in assay [3] (setting [9]), below 500 nM.
As for `Cc1nc(N[C@H](C)c2cccc(C(F)F)c2F)c2cc(C3CCN(C(C)C)CC3)c(OC3COC3)nc2n1` [Compound 335, (R)-N-(1-(3-(difluoromethyl)-2-fluorophenyl)ethyl)-6-(1-isopropylpiperidin-4-yl)-2-methyl-7-(oxetan-3-yloxy)pyrido [2,3-d]pyrimidin-4-amine], the IC50 in assay [1] (setting [4]) is at most 1000 nM; in assay [2] (setting [6]), below 100 nM; in assay [3] (setting [8]) it was at most 1000 nM.
With `Cc1nc(N[C@H](C)c2cccc(C(F)F)c2F)c2cc(N3CCN(C(C)C)CC3)c(OC3COC3)nc2n1` [Compound 336, (R)-N-(1-(3-(difluoromethyl)-2-fluorophenyl)ethyl)-6-(4-isopropylpiperazin-1-yl)-2-methyl-7-(oxetan-3-yloxy)pyrido [2,3-d]pyrimidin-4-amine], the IC50 is at most 1000 nM in assay [1] (setting [4]); below 500 nM in assay [1] (setting [5]); below 100 nM in assay [2] (setting [6]); below 50 nM in assay [2] (setting [7]); at most 1000 nM in assay [3] (setting [8]); below 500 nM in assay [3] (setting [9]).
With `COc1nc2nc(C)nc(N[C@H](C)c3cccc(C(F)F)c3F)c2cc1C1CCN(C2CCOCC2)CC1` [Compound 337, (R)-N-(1-(3-(difluoromethyl)-2-fluorophenyl)ethyl)-7-methoxy-2-methyl-6-(1-(tetrahydro-2H-pyran-4-yl)piperidin-4-yl)pyrido[2,3-d]pyrimidin-4-amine], the IC50 was at most 1000 nM in assay [1] (setting [4]); below 500 nM in assay [1] (setting [5]); below 100 nM in assay [2] (setting [6]); below 50 nM in assay [2] (setting [7]); at most 1000 nM in assay [3] (setting [8]); below 500 nM in assay [3] (setting [9]).
As to `COc1nc2nc(C)nc(N[C@H](C)c3cccc(C(F)F)c3F)c2cc1N1CCN(C2CCOCC2)CC1` [Compound 338, (R)-N-(1-(3-(difluoromethyl)-2-fluorophenyl)ethyl)-7-methoxy-2-methyl-6-(4-(tetrahydro-2H-pyran-4-yl)piperazin-1-yl)pyrido[2,3-d]pyrimidin-4-amine], the IC50 in assay [1] (setting [4]) is at most 1000 nM; in assay [1] (setting [5]), below 500 nM; in assay [2] (setting [6]), below 100 nM; in assay [2] (setting [7]), below 50 nM; in assay [3] (setting [8]), at most 1000 nM.
Turning to `Cc1nc(N[C@H](C)c2cccc(C(F)F)c2F)c2cc(C3CCN(C(C)C)CC3)c(OC3CNC3)nc2n1` [Compound 340, (R)-7-(azetidin-3-yloxy)-N-(1-(3-(difluoromethyl)-2-fluorophenyl)ethyl)-6-(1-isopropylpiperidin-4-yl)-2-methylpyrido[2,3-d]pyrimidin-4-amine], the IC50 in assay [1] (setting [4]) was 1000 to 10000 nM; in assay [2] (setting [6]), below 100 nM; in assay [2] (setting [7]), below 50 nM; in assay [3] (setting [8]) it was 1000 to 10000 nM.
For the molecule `Cc1nc(N[C@H](C)c2cccc(C(F)F)c2F)c2cc(S(=O)(=O)C3CCN(C)CC3)c(C#N)nc2n1` [Compound 341, (R)-4-((1-(3-(difluoromethyl)-2-fluorophenyl)ethyl)amino)-2-methyl-6-((1-methylpiperidin-4-yl)sulfonyl)pyrido[2,3-d] pyrimidine-7-carbonitrile], the IC50 in assay [1] (setting [4]) was at most 1000 nM; in assay [1] (setting [5]) it was below 500 nM; in assay [2] (setting [6]), below 100 nM; in assay [2] (setting [7]) it was below 50 nM; in assay [3] (setting [8]), at most 1000 nM; in assay [3] (setting [9]), below 500 nM.
Turning to `COc1nc2ncnc(N[C@H](C)c3cccc(C(F)F)c3F)c2cc1C1(C#N)CCS(=O)(=O)CC1` [Compound 342, (R)-4-(4-((1-(3-(difluoromethyl)-2-fluorophenyl)ethyl)amino)-7-methoxypyrido[2,3-d]pyrimidin-6-yl)tetrahydro-2H-thiopyran-4-carbonitrile 1,1-dioxide], the IC50 in assay [1] (setting [4]) is at most 1000 nM; in assay [1] (setting [5]) it was below 500 nM; in assay [2] (setting [6]), below 100 nM; in assay [2] (setting [7]) it was below 50 nM; in assay [3] (setting [8]), at most 1000 nM.
On to `COCCOc1nc2nc(C)nc(N[C@H](C)c3cccc(C(F)F)c3F)c2cc1N1CCN(C)CC1` [Compound 343, (R)-N-(1-(3-(difluoromethyl)-2-fluorophenyl)ethyl)-7-(2-methoxyethoxy)-2-methyl-6-(4-methylpiperazin-1-yl)pyrido[2,3-d] pyrimidin-4-amine], for which the IC50 in assay [1] (setting [4]) is at most 1000 nM; in assay [1] (setting [5]), below 500 nM; in assay [2] (setting [6]), below 100 nM; in assay [2] (setting [7]), below 50 nM; in assay [3] (setting [8]), at most 1000 nM.
Take `COc1nc2nc(C)nc(N[C@H](C)c3cccc(C(F)(F)CO)c3)c2cc1N1CCN(C(C)C)CC1` [Compound 345, (R)-2,2-difluoro-2-(3-(1-((6-(4-isopropylpiperazin-1-yl)-7-methoxy-2-methylpyrido[2,3-d]pyrimidin-4-yl)amino)ethyl)phenyl)ethan-1-ol]: the IC50 in assay [1] (setting [4]) was at most 1000 nM; in assay [1] (setting [5]) it was below 500 nM; in assay [2] (setting [6]) it was below 100 nM; in assay [2] (setting [7]) it was below 50 nM; in assay [3] (setting [8]), at most 1000 nM; in assay [3] (setting [9]), below 500 nM.

For the origin of these results see patent US11648254B2 (Kumquat Biosciences Inc., priority 2021, dated 2023).
